In patent US7399472B2, “Vaccines” (Smithkline Beecham Biologicals, priority 1999, dated 2008):

Legend:
erythrocytes = assay: Haemolysis assay for saponins; details: substantially pure samples
Description: Fresh blood from guinea pigs is washed with phosphate buffered saline (PBS) 3 times in a desk-top centrifuge. After resuspension to the original volume the blood is further diluted 10 fold in PBS. • 2. 50 μl of this blood suspension is added to 800 μl of PBS containing two-fold dilutions of surfactant or saponin. • 3. After 8 hours the haemolysis is assessed visually or by measuring the optical density of the supernatant. The presence of a red supernatant, which absorbs light at 570 nm indicates the presence of haemolysis. • 4. The results are expressed as the concentration of the first saponin dilution at which hemolysis no longer occurs.
For the purposes of his invention the saponin adjuvant preparation is haemolytic if it lyses the erythrocytes at a concentration of less than 0.1%. As means of reference, substantially pure samples of QuilA, QS21, QS7.

influenza virus = tested on: influenza virus; design: species or system Balb/c mice; details: mouse, in vivo
Lipo-OspA = assay type: in vivo, Balb/c mice; details: 14 days after nasal boost with 5 μg lipo-OspA; 20 μg CpG 1001 and/or 5 μg QS21; compared with PBS

| Molecule | haemolytic saponin as defined in this assay (erythrocytes) | intranasal boosting of IgG or HAI antibodies to Flu strains (influenza virus) | intranasal boosting of systemic antibodies to Lipo-OspA (OspA specific IgG and LA2 titres) (Lipo-OspA) |
| --- | --- | --- | --- |
| C[C@@H]1CC[C@@]2(OC1)O[C@H]1[C@@H](O)[C@H]3[C@@H]4CC[C@H]5C[C@@H](O[C@@H]6O[C@H](CO)[C@H](O[C@@H]7O[C@H](CO)[C@@H](O)[C@H](O[C@@H]8OC[C@@H](O)[C@H](O)[C@H]8O)[C@H]7O[C@@H]7O[C@H](CO)[C@H](O)[C@H](O[C@@H]8O[C@H](CO)[C@@H](O)[C@H](O)[C@H]8O)[C@H]7O)[C@H](O)[C@H]6O)[C@H](O)C[C@]5(C)[C@H]4CC[C@]3(C)[C@H]1[C@@H]2C [Digitonin] | haemolytic |  |  |
| CC1(C)[C@@H](O[C@H]2O[C@H](C(=O)O)[C@@H](O)[C@H](O)[C@H]2O[C@@H]2O[C@H](C(=O)O)[C@@H](O)[C@H](O)[C@H]2O)CC[C@]2(C)[C@H]3C(=O)C=C4[C@@H]5C[C@@](C)(C(=O)O)CC[C@]5(C)CC[C@@]4(C)[C@]3(C)CC[C@@H]12 [glycyrrhizic acid] | non haemolytic |  |  |
| QS21 | haemolytic | do not improve | improve significantly |
| β-escin | haemolytic |  |  |
